Measured values: patent US20030232999A1, “POLYMETHINE COMPOUND AND NEAR-INFRARED ABSORBING MATERIAL COMPRISING SAME” (priority 2002, published 2003)

Assay: Solubility in solvents (stated in words)
Assay type: physicochemical
Conditions: statement in words

| solubility in solvents | SMILES |
| --- | --- |
| low | CCN1/C(=C\C=C2/CCCC(/C=C/C3=[N+](CC)c4ccc(OC)cc4C3(C)C)=C2Cl)C(C)(C)c2cc(OC)ccc21.[I-] [compound B] |
| low | COCCN1/C(=C\C=C2/CCCC(/C=C/C3=[N+](CCOC)c4ccccc4C3(C)C)=C2Cl)C(C)(C)c2ccccc21 [compound A] |
